Experimental data as given in patent EP3827825A1, “USE OF 3, 4-DIARYLPYRAZOLES AS ANTIBACTERIAL AGENTS” (Wageningen Universiteit, priority 2019, dated 2021).
In brackets after ≈: the same amount, converted by molar mass. Read-outs that look alike come from different tables or passages of the source.

Columns and labels:
S. suis = experiment: Minimal inhibitory concentration (MIC), double-dilution in broth, OD600; assay type: cell-based, Streptococcus suis; settings: unit assumed
Protocol: (§1) In short, a stock solution of 5 mg/mL of HKIs in DMSO was made. This stock was diluted to 50 µg/mL in broth in a 96 well plate. Dilutions were made (factor 2) directly in the plate with a multi-channel pipet. Bacteria cultured in suspension overnight were then added to the plate (except negative control) and the plate was incubated for 24 hours. After 24 hours the OD600 was measured using a spectrophotometer. A positive control (with bacteria, without HKI) was also measured on each plate. The MICs were not determined in duplo/triplicate in the same experiment, however, the MICs of several HKIs were measured in different experiments and no major differences (max. 1x dilution) were found in the MICs between the experiments.
(§2) Bacterial strains used in this study for antibacterial susceptibility testing (Table S2) were propagated using standard microbiological procedures. Minimal inhibitory concentrations (MICs) were determined following a standard double-dilution method (42), 73. MICs were recorded as the lowest concentration of the compound where no visible growth was observed. After plating the dilutions around the MIC or growing them in fresh MH media, minimal bactericidal concentration (MBC) was recorded as the lowest concentration of the compound at which no colonies were formed or no growth was observed, respectively. For M. marinum, MICs were determined in Middlebrook 7H9 broth (Difco) and MICs were determined after 3 days incubation at 30 °C.
(§3) Grow the bacterial colonies to be tested from single colonies on an agar plate in LB broth or suitable bacterial growth medium overnight at 37°C. Prepare a 5 mg/mL stock solution of compounds to be tested in DMSO. One 96-well plate per bacterial strain was prepared. First, put 50 uL of medium to each well. Add 48 µL of medium to all wells in row A. Pipet 2 µL of antimicrobial master stock into the top well (row A). Beware, the antimicrobial concentration will be diluted 2x after adding the bacterial culture. Total volume in each well will be 100 µL. In A11, pipet 2 µL of DMSO. Make a serial dilution from row A to row H, pipetting 50 µL from the previous row into the new one. Mix well by pipetting up and down. Discard the last 50 µL so that there is 50 µl in each well In a clean, new plastic pipetting cup, dilute the overnight bacterial culture 100 times. Add 100 µL of bacterial overnight culture to 9900 µL of medium. Mix the suspension well. Once the serial dilutions are complete for all antimicrobial compounds, add 50 µL of diluted overnight bacterial culture to each well (except column 12). Mix by pipetting or put the plate on the shaker. Per 2 plates, close with parafilm around the edges and place in the incubator overnight. After overnight culturing, measure bacterial growth on the SpectraMax. The lowest concentration where no growth is observed is the MIC. To determine the MIB pipette 5 µL from each well of the 96 well plate where now growth was observed on to an LB agar plate, without antimicrobial. Put the plates in the incubator to grow overnight. The minimal concentration where no growth can be seen on the agar plate is the MBC.

S. aureus Newman = experiment: as above; assay type: cell-based, Staphylococcus aureus Newman; settings: unit assumed
Protocol: In short, a stock solution of 5 mg/mL of HKIs in DMSO was made. This stock was diluted to 50 µg/mL in broth in a 96 well plate. Dilutions were made (factor 2) directly in the plate with a multi-channel pipet. Bacteria cultured in suspension overnight were then added to the plate (except negative control) and the plate was incubated for 24 hours. After 24 hours the OD600 was measured using a spectrophotometer. A positive control (with bacteria, without HKI) was also measured on each plate.
Bacterial strains used in this study for antibacterial susceptibility testing (Table S2) were propagated using standard microbiological procedures. Minimal inhibitory concentrations (MICs) were determined following a standard double-dilution method (42), 73. […] For M. marinum, MICs were determined in Middlebrook 7H9 broth (Difco) and MICs were determined after 3 days incubation at 30 °C.
as §3

P. multocida = experiment: as above; assay type: cell-based, Pasteurella multocida; settings: unit assumed
Protocol: as §1, §2, §3

E. faecium Van A = experiment: as above; assay type: cell-based, Enterococcus faecium; settings: unit assumed
Protocol: as §1, §2, §3

M. marinum = experiment: Minimal inhibitory concentration (MIC), Middlebrook 7H9 broth, 3 days at 30 °C; assay type: cell-based, Mycobacterium marinum; settings: unit assumed
Protocol: as §1, §2, §3

HEK293 = experiment: Cell toxicity, Alamar blue assay, 24 hours exposure; assay type: cell-based; settings: Homo sapiens
Protocol: (§4) Toxicity was primarily determined by measuring cytotoxicity with the Alamar blue assay. In short, cells (HEK293, NRK-52E and Caco-2) were plated in 96-well plates and cultured overnight. HKI compounds were diluted to concentrations ranging from 0.39 to 500 µg/mL in serum-free medium and added to the cells.
(§5) After exposure, cells were incubated for 24 hours. Experiments were mostly performed by single measurement. […] After 24 hours HKIs were removed from the cells and Alamar blue was added, incubated for 45 minutes and fluorescence was measured on a spectrophotometer. Alamar blue measures the conversion of blue, low fluorescent resazurin into high fluorescent pink resorufin. This conversion can only be made in viable mitochondria in viable cells and therefore this dye provides a measure for cytotoxicity.

NRK-52E = experiment: as above; assay type: cell-based; settings: Rattus norvegicus
Protocol: as §4, §5

E. coli JW5503 = assay type: cell-based, Escherichia coli; settings: unit assumed
Protocol: as §1, §2, §3

[1] = HEK293, read-out: IC50 HEK293 (5 mg/mL stock)
[2] = HEK293, read-out: IC50 HEK293 (50 mg/mL stock)
[3] = read-out: IC50 NRK-52E (50 mg/mL stock)

SMILES	MIC S. suis (S. suis)	MIC S. aureus Newman (S. aureus Newman)	MIC P. multocida (P. multocida)	MIC E. faecium Van A (E. faecium Van A)	MIC M. marinum (M. marinum)	IC50 (HEK293; [1])	IC50 (HEK293; [2])	IC50 (NRK-52E; [3])	MIC E. coli JW5503 (E. coli JW5503)	IC50 (HEK293; read-out: IC50 HEK293 (50 mg/mL stock), HEK293, 50 mg/mL stock)	IC50 (NRK-52E; read-out: IC50 NRK-52E (50 mg/mL stock), 50 mg/mL stock)
Oc1ccc(-c2onc(C(F)(F)F)c2-c2ccc(Cl)cc2)c(O)c1 [AND-2, 4-[4-(4-chlorophenyl)-3-(trifluoromethyl)isoxazol-5-yl]resorcinol]	12.5 µg/mL (≈ 35.1 µM)	3.13 µg/mL (≈ 8.8 µM)	25 µg/mL (≈ 70.3 µM)	6.25 µg/mL (≈ 17.6 µM)	> 50 µg/mL	6.97 µg/mL (≈ 19.6 µM)	36.7 µg/mL (≈ 103 µM)	~3.88 µg/mL (≈ 10.9 µM)			
CCOc1ccc(-c2[nH]nc(C(F)(F)F)c2-c2ccc(OC)c(OC)c2)c(O)c1 [May-3, 2-[4-(3,4-dimethoxyphenyl)-5-(trifluoromethyl)-1∼{H}-pyrazol-3-yl]-5-ethoxy-phenol]	12.5 µg/mL (≈ 30.6 µM)	12.5 µg/mL (≈ 30.6 µM)	> 50 µg/mL		25 µg/mL (≈ 61.2 µM)	6.69 µg/mL (≈ 16.4 µM)		~0.8 µg/mL (≈ 1.96 µM)			
CCOc1ccc(-c2n[nH]c(C(F)(F)F)c2-c2ccc(OC)cc2)c(O)c1 [May-7, 5-ethoxy-2-[4-(4-methoxyphenyl)-5-(trifluoromethyl)-1∼{H}-pyrazol-3-yl]phenol]	6.25 µg/mL (≈ 16.5 µM)	6.25 µg/mL (≈ 16.5 µM)	> 50 µg/mL		50 µg/mL (≈ 132 µM)	5.68 µg/mL (≈ 15 µM)	231 µg/mL (≈ 610 µM)	~31.1 µg/mL (≈ 82.3 µM)			
COc1ccc(-c2n[nH]c(C(F)(F)F)c2-c2ccc(Cl)cc2)c(O)c1 [May-16, 2-[4-(4-chlorophenyl)-5-(trifluoromethyl)-1∼{H}-pyrazol-3-yl]-5-methoxy-phenol]	3.13 µg/mL (≈ 8.49 µM)	3.13 µg/mL (≈ 8.49 µM)	25 µg/mL (≈ 67.8 µM)		50 µg/mL (≈ 136 µM)	3.59 µg/mL (≈ 9.74 µM)			1.56 µg/mL (≈ 4.23 µM)		
COc1ccc(-c2n[nH]c(C(F)(F)F)c2-c2ccccc2OC)c(O)c1 [May-19, 5-methoxy-2-[4-(2-methoxyphenyl)-5-(trifluoromethyl)-1∼{H}-pyrazol-3-yl]phenol]	25 µg/mL (≈ 68.6 µM)	25 µg/mL (≈ 68.6 µM)	50 µg/mL (≈ 137 µM)	> 50 µg/mL	50 µg/mL (≈ 137 µM)	5.74 µg/mL (≈ 15.8 µM)		24.1 µg/mL (≈ 66.1 µM)			
COc1ccc(-c2n[nH]c(C(F)(F)F)c2-c2ccccc2)c(O)c1 [May-21, 5-methoxy-2-[4-phenyl-5-(trifluoromethyl)-1∼{H}-pyrazol-3-yl]phenol]	25 µg/mL (≈ 74.8 µM)	12.5 µg/mL (≈ 37.4 µM)	50 µg/mL (≈ 150 µM)		> 50 µg/mL	6.47 µg/mL (≈ 19.4 µM)	46.9 µg/mL (≈ 140 µM)	~15.6 µg/mL (≈ 46.8 µM)	3.13 µg/mL (≈ 9.36 µM)		
CCOc1ccc(-c2n[nH]c(C(F)(F)F)c2-c2ccccc2)c(O)c1 [May-22, 5-ethoxy-2-[4-phenyl-5-(trifluoromethyl)-1∼{H}-pyrazol-3-yl]phenol]	6.25 µg/mL (≈ 17.9 µM)	3.13 µg/mL (≈ 8.99 µM)	50 µg/mL (≈ 144 µM)	> 50 µg/mL	> 50 µg/mL	5.8 µg/mL (≈ 16.7 µM)	19.9 µg/mL (≈ 57.1 µM)	19.2 µg/mL (≈ 55 µM)			
NNC(=O)COc1ccc(-c2[nH]nc(C(F)(F)F)c2-c2ccccc2)c(O)c1 [May-25, 2-[3-hydroxy-4-[4-phenyl-5-(trifluoromethyl)-1∼{H}-pyrazol-3-yl]phenoxy]acetohy drazide]		12.5 µg/mL (≈ 31.9 µM)	50 µg/mL (≈ 127 µM)	25 µg/mL (≈ 63.7 µM)		27.6 µg/mL (≈ 70.3 µM)		106 µg/mL (≈ 271 µM)	6.25 µg/mL (≈ 15.9 µM)		
COc1ccc(-c2c(C(F)(F)F)n[nH]c2-c2ccc(OCc3ccccc3)cc2O)cc1 [May-26, 5-benzoxy-2-[4-(4-methoxyphenyl)-5-(trifluoromethyl)-1∼{H}-pyrazol-3-yl]phenol]	3.13 µg/mL (≈ 7.11 µM)	1.56 µg/mL (≈ 3.54 µM)	> 50 µg/mL		12.5 µg/mL (≈ 28.4 µM)		4.8 µg/mL (≈ 10.9 µM)	9.64 µg/mL (≈ 21.9 µM)	3.13 µg/mL (≈ 7.11 µM)		
CCOc1ccc(-c2n[nH]c(C)c2-c2ccc(Cl)cc2)c(O)c1 [Sep-22, 2-[4-(4-chlorophenyl)--5-methyl-1∼{H}-pyrazol-3-yl]-5-ethoxy-phenol]	50 µg/mL (≈ 152 µM)	50 µg/mL (≈ 152 µM)	> 50 µg/mL	> 50 µg/mL	> 50 µg/mL		23.6 µg/mL (≈ 71.8 µM)	~1480 µg/mL (≈ 4510 µM)			
COc1ccc(-c2n[nH]cc2-c2ccc(Cl)cc2)c(O)c1 [Sep-23, 2-[4-(4-chlorophenyl)-1∼{H}-pyrazol-5-yl]-5-methoxy-phenol]	> 50 µg/mL	25 µg/mL (≈ 83.1 µM)	> 50 µg/mL	> 50 µg/mL	> 50 µg/mL	9.14 µg/mL (≈ 30.4 µM)	39.7 µg/mL (≈ 132 µM)	259 µg/mL (≈ 861 µM)			
NNC(=O)COc1ccc(-c2n[nH]c(C(F)(F)F)c2-c2ccc(Cl)cc2)c(O)c1 [Sep-24, 2-[4-[4-(4-chlorophenyl)-5-(trifluoromethyl)-1∼{H}-pyrazol-3-yl]-3-hydroxy-phenoxy]acetohydr azide]	> 50 µg/mL	50 µg/mL (≈ 117 µM)	> 50 µg/mL	50 µg/mL (≈ 117 µM)	> 50 µg/mL					119 µg/mL (≈ 279 µM)	104 µg/mL (≈ 243 µM)
